Results as given in US20100004234A1, “SPECIFIC KINASE INHIBITORS” (Kosan Biosciences Incorporated, priority 2004, published 2010).
Read-outs that look alike come from different tables or passages of the source.

Experiments:
[1] = molecular target: Arg(h) (Homo sapiens, UniProt P42684); assay: Kinase panel, residual activity; assay type: biochemical; conditions: read-out: Percent residual activity
Procedure: (§1) In this panel of 124 kinases, 18 of the 19 kinases identified as having an active site cysteine were inhibited to some extent by hypothemycin at a concentration of 0.2 μM and/or 2 μM.

[2] = molecular target: Aurora-A(h) (Homo sapiens, UniProt O14965); assay: Kinase panel, residual activity; assay type: biochemical; conditions: read-out: Percent residual activity
Chain of Aurora-A(h) (O14965 whole entry): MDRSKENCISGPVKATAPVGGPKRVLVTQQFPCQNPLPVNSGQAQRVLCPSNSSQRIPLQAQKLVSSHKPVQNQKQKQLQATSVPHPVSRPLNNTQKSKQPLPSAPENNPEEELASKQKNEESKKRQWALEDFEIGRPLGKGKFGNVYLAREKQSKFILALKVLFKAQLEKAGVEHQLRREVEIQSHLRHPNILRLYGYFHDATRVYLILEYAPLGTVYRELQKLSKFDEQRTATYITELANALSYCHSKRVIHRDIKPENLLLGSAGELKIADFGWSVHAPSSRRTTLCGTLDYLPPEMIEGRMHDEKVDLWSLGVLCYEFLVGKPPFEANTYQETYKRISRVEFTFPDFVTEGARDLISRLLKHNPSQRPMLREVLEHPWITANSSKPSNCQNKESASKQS
Procedure: as §1

[3] = molecular target: CSK(h) (Homo sapiens, UniProt P41240); assay: Kinase panel, residual activity; assay type: biochemical; conditions: read-out: Percent residual activity
Procedure: as §1

[4] = molecular target: GSK3α(h) (Homo sapiens, UniProt P49840); assay: Kinase panel, residual activity; assay type: biochemical; conditions: read-out: Percent residual activity
Chain of GSK3α(h) (P49840 whole entry): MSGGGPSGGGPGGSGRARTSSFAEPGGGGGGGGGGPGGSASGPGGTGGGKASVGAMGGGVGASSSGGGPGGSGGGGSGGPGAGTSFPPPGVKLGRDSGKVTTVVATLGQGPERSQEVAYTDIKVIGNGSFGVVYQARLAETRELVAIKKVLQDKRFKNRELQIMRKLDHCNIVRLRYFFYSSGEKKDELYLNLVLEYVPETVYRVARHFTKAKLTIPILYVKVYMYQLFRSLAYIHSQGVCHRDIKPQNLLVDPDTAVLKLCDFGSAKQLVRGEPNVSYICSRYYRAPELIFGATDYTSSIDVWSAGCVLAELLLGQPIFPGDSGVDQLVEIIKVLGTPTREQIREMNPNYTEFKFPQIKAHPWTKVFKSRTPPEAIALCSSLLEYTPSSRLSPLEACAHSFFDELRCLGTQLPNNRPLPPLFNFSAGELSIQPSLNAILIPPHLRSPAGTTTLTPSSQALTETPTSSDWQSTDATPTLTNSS
Procedure: as §1

[5] = molecular target: IR(h) (Homo sapiens, UniProt P06213); assay: Kinase panel, residual activity; assay type: biochemical; conditions: read-out: Percent residual activity
Procedure: as §1

[6] = molecular target: JNK1α1(h) (Homo sapiens, UniProt P45983); assay: Kinase panel, residual activity; assay type: biochemical; conditions: read-out: Percent residual activity
Procedure: as §1

[7] = molecular target: MEK1(h) (Homo sapiens, UniProt Q02750); assay: Kinase panel, residual activity; assay type: biochemical; conditions: read-out: Percent residual activity
Procedure: as §1

[8] = molecular target: MKK6(h) (Homo sapiens, UniProt P52564); assay: Kinase panel, residual activity; assay type: biochemical; conditions: read-out: Percent residual activity
Chain of MKK6(h) (P52564 whole entry): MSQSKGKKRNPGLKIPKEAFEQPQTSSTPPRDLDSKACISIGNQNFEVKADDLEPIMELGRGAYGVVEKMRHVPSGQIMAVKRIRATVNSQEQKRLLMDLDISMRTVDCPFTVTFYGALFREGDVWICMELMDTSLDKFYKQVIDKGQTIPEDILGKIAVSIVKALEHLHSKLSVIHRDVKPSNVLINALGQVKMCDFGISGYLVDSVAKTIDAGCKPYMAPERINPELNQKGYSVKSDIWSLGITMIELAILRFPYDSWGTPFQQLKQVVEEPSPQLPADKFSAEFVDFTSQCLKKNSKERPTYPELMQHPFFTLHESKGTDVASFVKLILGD
Procedure: as §1

[9] = molecular target: MKK7β(h) (Homo sapiens, UniProt O14733); assay: Kinase panel, residual activity; assay type: biochemical; conditions: read-out: Percent residual activity
Chain of MKK7β(h) (O14733 whole entry): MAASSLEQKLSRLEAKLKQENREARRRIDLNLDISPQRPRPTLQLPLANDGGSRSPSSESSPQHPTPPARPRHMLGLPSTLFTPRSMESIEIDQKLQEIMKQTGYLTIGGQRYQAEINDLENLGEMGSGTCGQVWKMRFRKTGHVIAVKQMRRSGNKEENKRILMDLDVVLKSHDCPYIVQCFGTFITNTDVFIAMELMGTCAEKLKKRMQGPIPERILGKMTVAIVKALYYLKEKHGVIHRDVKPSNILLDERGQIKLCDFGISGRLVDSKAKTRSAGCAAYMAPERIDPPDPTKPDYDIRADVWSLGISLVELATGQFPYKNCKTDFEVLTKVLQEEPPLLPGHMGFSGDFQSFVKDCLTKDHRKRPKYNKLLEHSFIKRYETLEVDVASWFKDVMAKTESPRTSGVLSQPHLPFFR
Procedure: as §1

[10] = molecular target: Met(h) (Homo sapiens, UniProt P08581); assay: Kinase panel, residual activity; assay type: biochemical; conditions: read-out: Percent residual activity
Procedure: as §1

[11] = molecular target: PDGFRα(h) (Homo sapiens, UniProt P16234); assay: Kinase panel, residual activity; assay type: biochemical; conditions: read-out: Percent residual activity
Chain of PDGFRα(h) (P16234 24-1089): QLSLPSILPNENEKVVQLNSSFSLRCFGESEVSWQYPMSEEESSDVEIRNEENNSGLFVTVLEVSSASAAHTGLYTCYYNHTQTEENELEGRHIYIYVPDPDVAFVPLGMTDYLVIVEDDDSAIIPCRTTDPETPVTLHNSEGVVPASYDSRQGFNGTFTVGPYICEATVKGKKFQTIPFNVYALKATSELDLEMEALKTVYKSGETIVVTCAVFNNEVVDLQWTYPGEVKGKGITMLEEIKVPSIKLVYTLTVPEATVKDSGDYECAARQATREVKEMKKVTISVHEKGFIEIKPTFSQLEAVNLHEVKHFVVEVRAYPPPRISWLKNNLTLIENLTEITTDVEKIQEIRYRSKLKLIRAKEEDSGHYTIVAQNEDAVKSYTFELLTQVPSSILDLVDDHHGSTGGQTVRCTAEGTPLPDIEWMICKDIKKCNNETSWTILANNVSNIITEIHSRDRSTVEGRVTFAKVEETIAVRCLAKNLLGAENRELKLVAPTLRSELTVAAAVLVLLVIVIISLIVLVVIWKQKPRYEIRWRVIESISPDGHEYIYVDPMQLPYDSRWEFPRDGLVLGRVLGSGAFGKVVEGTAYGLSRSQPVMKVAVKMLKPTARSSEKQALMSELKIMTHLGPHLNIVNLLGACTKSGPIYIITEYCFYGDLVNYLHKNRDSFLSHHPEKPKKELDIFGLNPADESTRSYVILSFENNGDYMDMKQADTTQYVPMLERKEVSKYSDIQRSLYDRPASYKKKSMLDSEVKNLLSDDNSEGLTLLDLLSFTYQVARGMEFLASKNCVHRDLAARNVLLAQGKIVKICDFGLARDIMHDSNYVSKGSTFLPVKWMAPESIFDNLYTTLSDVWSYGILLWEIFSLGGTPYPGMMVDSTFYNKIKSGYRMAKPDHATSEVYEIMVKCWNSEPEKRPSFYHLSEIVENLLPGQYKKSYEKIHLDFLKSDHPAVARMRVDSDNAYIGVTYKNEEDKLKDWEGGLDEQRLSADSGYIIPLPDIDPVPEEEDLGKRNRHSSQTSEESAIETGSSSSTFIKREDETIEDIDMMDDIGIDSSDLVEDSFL
Procedure: as §1

[12] = molecular target: PKD2(h) (Homo sapiens, UniProt Q9BZL6); assay: Kinase panel, residual activity; assay type: biochemical; conditions: read-out: Percent residual activity
Chain of PKD2(h) (Q9BZL6 whole entry): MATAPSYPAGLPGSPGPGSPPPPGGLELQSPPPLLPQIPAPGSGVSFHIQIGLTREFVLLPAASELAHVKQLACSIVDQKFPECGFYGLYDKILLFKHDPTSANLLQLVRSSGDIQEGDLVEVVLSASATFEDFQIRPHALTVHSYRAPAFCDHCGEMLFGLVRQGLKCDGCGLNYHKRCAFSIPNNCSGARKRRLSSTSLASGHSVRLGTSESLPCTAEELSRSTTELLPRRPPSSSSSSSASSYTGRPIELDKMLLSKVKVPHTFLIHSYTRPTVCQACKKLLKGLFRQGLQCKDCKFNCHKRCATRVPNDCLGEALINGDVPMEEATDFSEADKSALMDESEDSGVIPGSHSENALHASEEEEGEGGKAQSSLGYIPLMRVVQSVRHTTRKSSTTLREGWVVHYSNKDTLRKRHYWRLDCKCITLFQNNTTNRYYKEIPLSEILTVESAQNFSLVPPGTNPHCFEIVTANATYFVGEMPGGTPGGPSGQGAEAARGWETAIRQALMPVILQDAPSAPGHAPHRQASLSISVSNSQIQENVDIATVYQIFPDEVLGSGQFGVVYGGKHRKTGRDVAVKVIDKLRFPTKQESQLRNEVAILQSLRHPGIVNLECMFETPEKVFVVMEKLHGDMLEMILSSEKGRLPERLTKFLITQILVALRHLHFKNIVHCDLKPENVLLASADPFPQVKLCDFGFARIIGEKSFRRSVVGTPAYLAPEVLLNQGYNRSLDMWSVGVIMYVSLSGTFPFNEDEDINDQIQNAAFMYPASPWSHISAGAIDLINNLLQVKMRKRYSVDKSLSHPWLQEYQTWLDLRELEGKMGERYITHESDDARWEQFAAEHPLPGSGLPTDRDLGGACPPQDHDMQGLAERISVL
Procedure: as §1

[13] = molecular target: PRAK(h) (Homo sapiens, UniProt Q8IW41); assay: Kinase panel, residual activity; assay type: biochemical; conditions: read-out: Percent residual activity
Chain of PRAK(h) (Q8IW41 whole entry): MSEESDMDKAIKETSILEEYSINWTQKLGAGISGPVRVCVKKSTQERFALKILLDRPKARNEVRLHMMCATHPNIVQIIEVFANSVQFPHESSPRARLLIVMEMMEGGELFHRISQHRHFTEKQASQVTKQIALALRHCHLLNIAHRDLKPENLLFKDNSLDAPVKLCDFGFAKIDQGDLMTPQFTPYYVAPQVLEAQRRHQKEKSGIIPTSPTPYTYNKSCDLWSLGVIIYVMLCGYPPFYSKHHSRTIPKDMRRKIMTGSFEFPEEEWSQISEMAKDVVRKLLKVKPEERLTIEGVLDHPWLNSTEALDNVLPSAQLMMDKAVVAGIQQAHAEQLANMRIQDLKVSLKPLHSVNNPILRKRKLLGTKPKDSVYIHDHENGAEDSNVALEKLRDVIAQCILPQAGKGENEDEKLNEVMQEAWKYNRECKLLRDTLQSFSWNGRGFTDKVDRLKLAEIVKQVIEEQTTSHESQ
Procedure: as §1

[14] = molecular target: Pim-1(h) (Homo sapiens, UniProt P11309); assay: Kinase panel, residual activity; assay type: biochemical; conditions: read-out: Percent residual activity
Procedure: as §1

[15] = molecular target: Tie2(h) (Homo sapiens, UniProt Q02763); assay: Kinase panel, residual activity; assay type: biochemical; conditions: read-out: Percent residual activity
Procedure: as §1

[16] = molecular target: TrkA(h) (Homo sapiens, UniProt P04629); assay: Kinase panel, residual activity; assay type: biochemical; conditions: read-out: Percent residual activity
Chain of TrkA(h) (P04629 33-796): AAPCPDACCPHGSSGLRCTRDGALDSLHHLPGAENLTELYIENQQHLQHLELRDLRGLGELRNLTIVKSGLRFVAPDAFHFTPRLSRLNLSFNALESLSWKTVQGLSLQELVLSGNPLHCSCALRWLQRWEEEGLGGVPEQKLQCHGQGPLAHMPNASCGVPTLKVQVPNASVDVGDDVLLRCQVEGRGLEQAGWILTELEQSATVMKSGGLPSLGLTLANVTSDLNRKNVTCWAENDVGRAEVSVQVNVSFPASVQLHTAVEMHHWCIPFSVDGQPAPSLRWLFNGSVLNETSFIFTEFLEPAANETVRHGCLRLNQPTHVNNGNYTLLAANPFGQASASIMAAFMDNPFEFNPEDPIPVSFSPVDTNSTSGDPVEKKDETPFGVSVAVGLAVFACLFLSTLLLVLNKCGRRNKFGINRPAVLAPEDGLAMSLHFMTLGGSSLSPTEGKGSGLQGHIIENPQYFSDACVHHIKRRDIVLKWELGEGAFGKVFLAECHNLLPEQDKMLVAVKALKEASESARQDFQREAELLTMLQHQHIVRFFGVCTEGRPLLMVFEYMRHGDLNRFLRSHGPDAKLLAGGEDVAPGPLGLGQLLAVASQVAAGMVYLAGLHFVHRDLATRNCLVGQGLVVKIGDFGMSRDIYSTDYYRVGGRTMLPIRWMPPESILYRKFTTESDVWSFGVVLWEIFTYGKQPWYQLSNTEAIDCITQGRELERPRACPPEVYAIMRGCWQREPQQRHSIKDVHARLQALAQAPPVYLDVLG
Procedure: as §1

[17] = molecular target: Yes(h) (Homo sapiens, UniProt P07947); assay: Kinase panel, residual activity; assay type: biochemical; conditions: read-out: Percent residual activity
Procedure: as §1

[18] = molecular target: ZAP-70(h) (Homo sapiens, UniProt P43403); assay: Kinase panel, residual activity; assay type: biochemical; conditions: read-out: Percent residual activity
Procedure: as §1

[19] = tested on: A375 (Human melanoma, B-Raf V599E); assay: Cell proliferation assay (Cell Titer Glo); assay type: cell-based; conditions: Homo sapiens, A-375, read-out: Kinase Inhibitor IC50
Procedure: (§2) In one illustrative method, cells are treated with various concentrations of the inhibitor in 96 well plates, incubated at 37° C./5% CO2 for three days, and analyzed using the Cell Titer Glo kit (Promega).

[20] = tested on: A549 (NSCLC, B-Raf wild-type); assay: Cell proliferation assay (Cell Titer Glo); assay type: cell-based; conditions: Homo sapiens, A549, read-out: Kinase Inhibitor IC50
Procedure: as §2

[21] = tested on: ASZ001 (Basal cell carcinoma); assay: Cell proliferation assay (Cell Titer Glo); assay type: cell-based
Procedure: as §2

[22] = tested on: DU4475 (Human breast, B-Raf V599E); assay: Cell proliferation assay (Cell Titer Glo); assay type: cell-based; conditions: Homo sapiens, DU-4475, read-out: Kinase Inhibitor IC50
Procedure: as §2

[23] = tested on: EOL-1 (Human leukemia FLP1L1-PDGFRA); assay: Cell proliferation assay (Cell Titer Glo); assay type: cell-based; conditions: Homo sapiens, EOL1, read-out: Kinase Inhibitor IC50
Procedure: as §2

[24] = tested on: MV4-11 (Human leukemia Flt3-ITD); assay: Cell proliferation assay (Cell Titer Glo); assay type: cell-based; conditions: Homo sapiens
Procedure: as §2

[25] = tested on: P815 (Mouse mastocytoma, KIT D814Y); assay: Cell proliferation assay (Cell Titer Glo); assay type: cell-based; conditions: Mus musculus
Procedure: as §2

[26] = tested on: WM266-4 (Human melanoma, B-Raf V599D); assay: Cell proliferation assay (Cell Titer Glo); assay type: cell-based; conditions: Homo sapiens, WM 266-4, read-out: Kinase Inhibitor IC50
Procedure: as §2

[27] = tested on: A375 xenograft; assay: B-Raf mutant melanoma (A375) xenograft model; assay type: in vivo
Excerpt: The sensitivity of B-Raf mutated cancer cell lines to RALs was confirmed in a B-Raf mutant melanoma (A375) xenograft model.

Work on COc1cc(O)c2c(c1)[C@H]1O[C@@H]1C[C@H](O)[C@H](O)C(=O)/C=C\C[C@H](C)OC2=O [Hypothemycin, hypothemycin] yielded a remaining activity at 0.2 µM [1] of 98%, a remaining activity at 0.2 µM ([2]; 0.2 μM) of 87% and a remaining activity at 2 µM ([2]; 2.0 μM) of 91%. It also gave a remaining activity at 0.2 µM [3] of 104%, a remaining activity at 0.2 µM ([4]; 0.2 μM) of 90% and a remaining activity at 2 µM ([4]; 2.0 μM) of 88%. For the same compound, the remaining activity at 0.2 µM [5] was 100%, the remaining activity at 0.2 µM [6] was 97% and the remaining activity at 0.2 µM ([7]; 0.2 μM) was 54%. The remaining activity at 2 µM ([7]; 2.0 μM) was 8%, the remaining activity at 0.2 µM ([8]; 0.2 μM) was 43% and the remaining activity at 2 µM ([8]; 2.0 μM) was 8%. The remaining activity at 0.2 µM ([9]; 0.2 μM) was 85%, the remaining activity at 2 µM ([9]; 2.0 μM) was 41% and the remaining activity at 0.2 µM [10] was 96%. The remaining activity at 0.2 µM ([11]; 0.2 μM) was 77%, the remaining activity at 2 µM ([11]; 2.0 μM) was 20% and the remaining activity at 0.2 µM ([12]; 0.2 μM) was 31%. For the same compound, the remaining activity at 2 µM ([12]; 2.0 μM) was -2%, the remaining activity at 0.2 µM ([13]; 0.2 μM) was 20% and the remaining activity at 2 µM ([13]; 2.0 μM) was 1%. It also gave a remaining activity at 0.2 µM [14] of 100%, a remaining activity at 0.2 µM [15] of 93% and a remaining activity at 0.2 µM ([16]; 0.2 μM) of 22%. The remaining activity at 2 µM ([16]; 2.0 μM) was 1%, the remaining activity at 0.2 µM [17] was 99% and the remaining activity at 0.2 µM [18] was 111%. For the same compound, the IC50 [19] was 180 nM, the IC50 [20] was 6000 nM and the IC50 ([21]; ASZ001 (Basal cell carcinoma), read-out: Kinase Inhibitor IC50) was 100 nM. For the same compound, the IC50 ([21]; BCC cell line ASZ001 in culture, read-out: IC50) was ~100 nM, the IC50 [22] was 18 nM and the IC50 [23] was 0.41 nM. The GI50 ([24]; MV4-11) was 6 nM, the IC50 ([24]; MV4-11, read-out: Kinase Inhibitor IC50) was 5.5 nM and the GI50 ([25]; P815) was 310 nM. The IC50 ([25]; P815, read-out: Kinase Inhibitor IC50) was 310 nM, the IC50 [26] was 40 nM and the “growth of the A375 xenograft relative to vehicle alone” value ([27]; administered daily at 15 mg/kg or 20 mg/kg, FIG. 6) was “significantly inhibits the growth”. The “A375 xenograft growth inhibition compared with Bayer 43-9006” value ([27]; hypothemycin at both dosages vs Bayer 43-9006 25 mg/kg or 50 mg/kg every other day) was “significantly better”.
